Results as given in US20050070527A1, “Quinoxaline compounds” (priority 2003, published 2005).
Where two headings read alike, the source gives them in different places.

Tests used:
[1] = target: T1, human histamine H4 receptor (Homo sapiens, UniProt Q9H3N8); assay: Binding assay on recombinant human histamine H4 receptor (3H-histamine displacement)
T1 construct: expressed in transfected cells; host or cells: SK-N-MC cells or COS7 cells, transiently transfected; membrane preparation
Procedure: Binding Assay on Recombinant Human Histamine H4 Receptor
SK-N-MC cells or COS7 cells were transiently transfected with pH4R and grown in 150 cm^2 tissue culture dishes. Cells were washed with saline solution, scraped with a cell scraper and collected by centrifugation (1000 rpm, 5 min). Cell membranes were prepared by homogenization of the cell pellet in 20 mM Tris-HCl with a polytron tissue homogenizer for 10 s at high speed. Homogenate was centrifuged at 1000 rpm for 5 min at 4° C. The supernatant was then collected and centrifuged at 20,000× g for 25 min at 4° C. The final pellet was resuspended in 50 mM Tris-HCl. Cell membranes were incubated with ^3H-histamine (5-70 nM) in the presence or absence of excess histamine (10000 nM). Incubation occurred at room temperature for 45 min. Membranes were harvested by rapid filtration over Whatman GF/C filters and washed 4 times with ice-cold 50 mM Tris HCl. Filters were then dried, mixed with scintillant and counted for radioactivity. SK-N-MC or COS7 cells expressing human histamine H4 receptor were used to measure the affinity of binding of other compounds and their ability to displace ^3H-ligand binding by incubating the above-described reaction in the presence of various concentrations of inhibitor or compound to be tested.

human eosinophils [2] = assay: Inhibition of eosinophil shape change (gated autofluorescence forward scatter assay); conditions: for effect on histamine-induced shape change: antagonist, human eosinophils; for Fold Change (eosinophil shape change): 10 μM antagonist
Mast cells = assay: Mast cell chemotaxis assay (histamine-induced, transwell); format: cell-based; conditions: 10 μM histamine, 3 h at 37° C.
Procedure: Mast Cell Chemotaxis Assay
In addition, it is known that mast cell numbers increase in a number of inflammatory conditions. Some of this is due to chemotaxis of mast cells to the sites of inflammation. This chemotaxis to specific agents can be mimicked in vitro. Transwells (Costar, Cambridge, Mass.) of a pore size 8 μm were coated with 100 μL of 100 ng/mL human fibronectin (Sigma) for 2 h at room temperature. After removal of the fibronectin, 600 μL of RPMI with 5% BSA, in the presence of 10 μM histamine, was added to the bottom chamber. To test the various histamine receptor (HR) antagonists, 10 μM and/or 1 μM solutions of the test compounds were added to the top and bottom chambers. Mast cells (2×10^5/well) were added to the top chamber. The plates were incubated for 3 h at 37° C. Transwells were removed and the cells in the bottom chamber were counted for sixty seconds using a flow cytometer.

human eosinophils [3] = conditions: cited from earlier work
[4] = Table 1, competition with 3H-histamine, Cheng-Prusoff, KD 5 nM, ligand 5 nM, read-out: Ki

T1 sequence (Q9H3N8 whole entry): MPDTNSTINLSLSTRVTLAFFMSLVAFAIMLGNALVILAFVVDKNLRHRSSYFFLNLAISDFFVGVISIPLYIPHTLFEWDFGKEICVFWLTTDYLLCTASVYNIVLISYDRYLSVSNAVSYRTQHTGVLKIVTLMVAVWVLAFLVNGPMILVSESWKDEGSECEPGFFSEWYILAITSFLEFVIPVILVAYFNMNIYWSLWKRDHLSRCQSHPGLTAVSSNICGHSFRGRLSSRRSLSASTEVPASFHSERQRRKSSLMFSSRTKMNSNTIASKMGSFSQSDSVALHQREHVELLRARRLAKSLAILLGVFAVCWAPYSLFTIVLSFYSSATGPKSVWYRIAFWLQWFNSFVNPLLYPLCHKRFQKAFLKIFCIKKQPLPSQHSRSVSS

3-(4-Methyl-piperazin-1-yl)-6-trifluoromethyl-1H-qui noxalin-2-one; and 3-(4-Methyl-piperazin-1-yl)-7-trifluoromethyl-1H-quinoxalin-2-one [Example 11]
Ki [1, 4]: 11 nM

6-Chloro-3-(4-methyl-piperazin-1-yl)-1H-quinoxalin-2-one; and 7-Chloro-3-(4-methyl-piperazin-1-yl)-1H-quinoxalin-2-one [Example 8]
Ki ([1]; read-out: Ki): 21 nM

CNC(=C[N+](=O)[O-])NCCSCc1ccc(CN(C)C)o1 [ranatidine]
effect on histamine-induced shape change (human eosinophils [2]): did not alter | Fold Change (eosinophil shape change) (human eosinophils [2]; histamine 0 μM): 1.00 | Fold Change (eosinophil shape change) (human eosinophils [2]; histamine 0.01 μM): 1.04 | Fold Change (eosinophil shape change) (human eosinophils [2]; histamine 0.1 μM): 1.21 | Fold Change (eosinophil shape change) (human eosinophils [2]; histamine 1 μM): 1.49 | Fold Change (eosinophil shape change) (human eosinophils [2]; histamine 10 μM): 1.64

3-(3-Methyl-piperazin-1-yl)-6-trifluoromethyl-1H-quinoxalin-2-one; and 3-(3-Methyl-piperazin-1-yl)-7-trifluoromethyl-1H-qui noxalin-2-one [Example 28]
Ki [1, 4]: 743 nM

6-Chloro-7-fluoro-3-(4-methyl-piperazin-1-yl)-1H-quinoxalin-2-one; and 7-Chloro-6-fluoro-3-(4-methyl-piperazin-1-yl)-1H-quinoxalin-2-one [Example 25]
% Inh (Mast cells; HR antagonist 1 μM): 81% | % Inh (Mast cells; HR antagonist 10 μM): 79% | Ki [1, 4]: 12 nM | Ki ([1]; repeated in the mast cell chemotaxis table, read-out: Binding Assay Ki): 12 nM

CN1CCN(c2nc3cc(C(F)(F)F)cc(Cl)c3[nH]c2=O)CC1 [Example 23, 8-Chloro-3-(4-methyl-piperazin-1-yl)-6-trifluoromethyl-1H-quinoxalin-2-one]
Ki [1, 4]: 166 nM

3-piperazin-1-yl-6-trifluoromethyl-1H-quinoxalin-2-one; and 3-piperazin-1-yl-7-trifluoromethyl-1H-quinoxalin-2-one [Example 24]
Ki [1, 4]: 467 nM

CN1CCN(c2nc3cc(F)c(F)cc3[nH]c2=O)CC1 [Example 17, 6,7-Difluoro-3-(4-methyl-piperazin-1-yl)-1H-quinoxalin-2-one]
Ki [1, 4]: 74 nM

CN1CCN(c2nc3ccc(C(F)(F)F)cc3[nH]c2=O)CC1 [Example 13, 3-(4-Methyl-piperazin-1-yl)-7-trifluoromethyl-1H-quinoxalin-2-one]
Ki [1, 4]: 19 nM

NCCc1c[nH]cn1 [histamine]
activation of calcium mobilization (human eosinophils [3]): activate calcium mobilization | shape change in eosinophils (agonist effect) (human eosinophils [2]; histamine alone, 0.01-10 μM): induces a dose-dependent shape change

Cc1cccc2nc(N3CCN(CCO)CC3)c(=O)[nH]c12 [Example 7, 3-[4-(2-Hydroxy-ethyl)-piperazin-1-yl]-8-methyl-1H-quinoxalin-2-one]
Ki [1, 4]: 852 nM

6-Chloro-3-(3-methyl-piperazin-1-yl)-1H-quinoxalin-2-one; and 7-Chloro-3-(3-methyl-piperazin-1-yl)-1H-quinoxalin-2-one [Example 27]
Ki ([1]; read-out: Ki): 467 nM

7-Chloro-3-piperazin-1-yl-1H-quinoxalin-2-one; and 6-Chloro-3-piperazin-1-yl-1H-quinoxalin-2-one [Example 26]
Ki ([1]; read-out: Ki): 152 nM

Cc1cc2nc(N3CCN(C)CC3)c(=O)[nH]c2cc1Cl [Example 19, 7-Chloro-6-methyl-3-(4-methyl-piperazin-1-yl)-1H-quinoxalin-2-one]
Ki [1, 4]: 93 nM

S=C(NC1CCCCC1)N1CCC(c2cnc[nH]2)CC1 [thioperamide]
blockade of calcium mobilization responses (human eosinophils [3]; responses to histamine and R-α-methylhistamine): blocked

CN1CCN(C(=O)c2cc3cc(Cl)ccc3[nH]2)CC1 [(5-chloro-1H-indol-2-yl)-(4-methyl-piperazin-1-yl)-methanone]
IC50 (human eosinophils [2]; Homo sapiens, Eosinophil, read-out: IC50, inhibition of histamine-induced eosinophil shape change): 270 nM

CN(C)CCOC(c1ccccc1)c1ccccc1 [diphenhydramine]
effect on histamine-induced shape change (human eosinophils [2]): did not alter | Fold Change (eosinophil shape change) (human eosinophils [2]; histamine 0 μM): 1.00 | Fold Change (eosinophil shape change) (human eosinophils [2]; histamine 0.01 μM): 1.03 | Fold Change (eosinophil shape change) (human eosinophils [2]; histamine 0.1 μM): 1.18 | Fold Change (eosinophil shape change) (human eosinophils [2]; histamine 1 μM): 1.50 | Fold Change (eosinophil shape change) (human eosinophils [2]; histamine 10 μM): 1.63

O=c1[nH]c2cc(Cl)c(Cl)cc2nc1N1CCNCC1 [Example 15, 6,7-Dichloro-3-piperazin-1-yl-1H-quinoxalin-2-one]
Ki ([1]; read-out: Ki): 56 nM

CC1CN(c2nc3ccccc3[nH]c2=O)CCN1 (stereo not drawn) [Example 6, 3-(3-Methyl-piperazin-1-yl)-1H-quinoxalin-2-one]
Ki [1, 4]: 681 nM

CN1CCN(c2nc3cc(Cl)c(Cl)cc3[nH]c2=O)CC1 [Example 14, 6,7-Dichloro-3-(4-methyl-piperazin-1-yl)-1H-quinoxalin-2-one]
% Inh (Mast cells; HR antagonist 1 μM): 71% | % Inh (Mast cells; HR antagonist 10 μM): 80% | Ki [1, 4]: 32 nM

Cc1cc2[nH]c(=O)c(N3CCN(C)CC3)nc2cc1Cl [Example 20, 6-Chloro-7-methyl-3-(4-methyl-piperazin-1-yl)-1H-quinoxalin-2-one]
Ki [1, 4]: 83 nM

CN1CCN(c2nc3cc(F)ccc3[nH]c2=O)CC1 [Example 21, 6-Fluoro-3-(4-methyl-piperazin-1-yl)-1H-quinoxalin-2-one]
Ki ([1]; read-out: Ki): 39 nM

O=c1[nH]c2c(F)c(F)ccc2nc1N1CCNCC1 [Example 4, 7,8-Difluoro-3-piperazin-1-yl-1H-quinoxalin-2-one]
Ki [1, 4]: 430 nM

Cc1cccc2nc(N3CCN(C)CC3)c(=O)[nH]c12 [Example 1, 8-Methyl-3-(4-methyl-piperazin-1-yl)-1H-quinoxalin-2-one]
% Inh (Mast cells; HR antagonist 1 μM): 76% | Ki ([1]; read-out: Ki): 6 nM

7-Chloro-6-methyl-3-(4-methyl-piperazin-1-yl)-1H-quinoxalin-2-one; and 6-Chloro-7-methyl-3-(4-methyl-piperazin-1-yl)-1H-quinoxalin-2-one [Example 18]
Ki [1, 4]: 112 nM

CN1CCN(c2nc3ccc(F)c(F)c3[nH]c2=O)CC1 [Example 22, 7,8-Difluoro-3-(4-methyl-piperazin-1-yl)-1H-quinoxalin-2-one]
Ki [1, 4]: 30 nM

CN1CCN(c2nc3cc(C(F)(F)F)ccc3[nH]c2=O)CC1 [Example 12, 3-(4-Methyl-piperazin-1-yl)-6-trifluoromethyl-1H-quinoxalin-2-one]
% Inh (Mast cells; HR antagonist 1 μM): 99% | Ki [1, 4]: 24 nM

C[C@@H](N)Cc1c[nH]cn1 [R-α-methylhistamine]
activation of calcium mobilization (human eosinophils [3]): activate calcium mobilization | potency relative to histamine in calcium mobilization (human eosinophils [3]): significantly less potent than histamine

Cc1cccc2nc(N3CCNC(C)C3)c(=O)[nH]c12 (stereo not drawn) [Example 5, 8-Methyl-3-(3-methyl-piperazin-1-yl)-1H-quinoxalin-2-one]
Ki ([1]; read-out: Ki): 40 nM

CN1CCCN(c2nc3cc(Cl)c(Cl)cc3[nH]c2=O)CC1 [Example 16, 6,7-Dichloro-3-(4-methyl-[1,4]diazepan-1-yl)-1H-quinoxalin-2-one]
Ki [1, 4]: 1610 nM

CN1CCN(c2nc3cc(Cl)ccc3[nH]c2=O)CC1 [Example 9, 6-Chloro-3-(4-methyl-piperazin-1-yl)-1H-quinoxalin-2-one]
Ki ([1]; read-out: Ki): 84 nM

Cc1cccc2nc(N3CCNCC3)c(=O)[nH]c12 [Example 2, 8-Methyl-3-piperazin-1-yl-1H-quinoxalin-2-one]
% Inh (Mast cells; HR antagonist 1 μM): 50% | Ki ([1]; read-out: Ki): 16 nM

CN1CCN(c2nc3ccc(Cl)cc3[nH]c2=O)CC1 [Example 10, 7-Chloro-3-(4-methyl-piperazin-1-yl)-1H-quinoxalin-2-one]
Ki ([1]; read-out: Ki): 31 nM

O=c1[nH]c2c([N+](=O)[O-])cccc2nc1N1CCNCC1 [Example 3, 8-Nitro-3-piperazin-1-yl-1H-quinoxalin-2-one]
Ki [1, 4]: 640 nM
